From PubChem BioAssay AID248 (DTP/NCI, 2004)
Several values for one entry are separate records, joined by “and”; a condition that tells them apart may be missing. Equal values may be shown once. Toxic doses and inconclusive results are not listed. No stated cut-off is given here; in the data, active means T/C of 150% or more; inactive means T/C below 125%.

Tested on: L1210 leukemia ip in BDF1 mice, survival T/C
Assay: NCI In Vivo Anticancer Drug Screen. Data for tumor model L1210 Leukemia (intraperitoneal) in B6D2F1 (BDF1) mice
Conditions: endpoint: mean survival time, higher = longer survival
Summary of the method: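 In this screen, tumor-bearing mice given compound are compared to those given vehicle, and their survival values are reported as a treated-to-control quotient.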

[1] = dose: 100.0 mg/kg/injection, schedule: Q04DX003 (ip), vehicle: Klucel (hydroxypropylcellulose) (HPC)
[2] = dose: 200.0 mg/kg/injection, schedule: Q04DX003 (ip), vehicle: Klucel (hydroxypropylcellulose) (HPC)
[3] = dose: 400.0 mg/kg/injection, schedule: Q04DX003 (ip), vehicle: Klucel (hydroxypropylcellulose) (HPC)
[4] = dose: 100.0 mg/kg/injection, schedule: Q01DX009 (ip), vehicle: saline
[5] = dose: 100.0 mg/kg/injection, schedule: Q04DX003 (ip), vehicle: saline
[6] = dose: 200.0 mg/kg/injection, schedule: Q04DX003 (ip), vehicle: saline
[7] = dose: 400.0 mg/kg/injection, schedule: Q04DX003 (ip), vehicle: saline
[8] = dose: 100.0 mg/kg/injection, schedule: Q01DX009 (ip), vehicle: Klucel (hydroxypropylcellulose) (HPC)
[9] = dose: 200.0 mg/kg/injection, schedule: Q01DX009 (ip), vehicle: Klucel (hydroxypropylcellulose) (HPC)
[10] = dose: 100.0 mg/kg/injection, schedule: Q01DX009 (ip), vehicle: saline with Tween-80
[11] = dose: 200.0 mg/kg/injection, schedule: Q01DX009 (ip), vehicle: saline with Tween-80
[12] = dose: 400.0 mg/kg/injection, schedule: Q01DX009 (ip), vehicle: saline with Tween-80
[13] = dose: 25.0 mg/kg/injection, schedule: Q01DX009 (ip), vehicle: saline with Tween-80
[14] = dose: 50.0 mg/kg/injection, schedule: Q01DX009 (ip), vehicle: saline with Tween-80
[15] = dose: 25.0 mg/kg/injection, schedule: Q01DX009 (ip), vehicle: Klucel (hydroxypropylcellulose) (HPC)
[16] = dose: 50.0 mg/kg/injection, schedule: Q01DX009 (ip), vehicle: Klucel (hydroxypropylcellulose) (HPC)

Measured: T/C

Cc1ccc(C)c(CCCCS(N)(=O)=O)c1
inactive: [1] 100 % of control | [2] 104 % of control | [3] 100 % of control

Nc1ncnn1C(=S)NCc1ccccc1
inactive: [4] 100 % of control | [5] 89 % of control | [6] 90 % of control | [7] 88 % of control

O=C(CCCl)OCCCl
inactive: dose: 50.0 mg/kg/injection, schedule: Q01DX009 (ip), vehicle: saline sonified 94 % of control | dose: 100.0 mg/kg/injection, schedule: Q01DX009 (ip), vehicle: saline sonified 96 % of control | dose: 200.0 mg/kg/injection, schedule: Q01DX009 (ip), vehicle: saline sonified 94 % of control

c1csc(C[N+]23CN4CN(CN(C4)C2)C3)c1
inactive: [4] 92 % of control | dose: 200.0 mg/kg/injection, schedule: Q01DX009 (ip), vehicle: saline 103 % of control | dose: 400.0 mg/kg/injection, schedule: Q01DX009 (ip), vehicle: saline 101 % of control

N#Cc1ccc[nH]1
inactive: dose: 100.0 mg/kg/injection, schedule: Q01DX001 (sc), vehicle: carboxymethylcellulose (CMC) 121 % of control | dose: 177.0 mg/kg/injection, schedule: Q01DX001 (ip), vehicle: carboxymethylcellulose (CMC) 108 % of control | dose: 200.0 mg/kg/injection, schedule: Q01DX001 (sc), vehicle: carboxymethylcellulose (CMC) 110 % of control | dose: 266.0 mg/kg/injection, schedule: Q01DX001 (ip), vehicle: carboxymethylcellulose (CMC) 96 % of control | dose: 400.0 mg/kg/injection, schedule: Q01DX001 (ip), vehicle: carboxymethylcellulose (CMC) 102 % of control

CC1=C(N)C(=O)C2=C(C1=O)N1CC3C(N3C)C1(O)C2COC(N)=O (stereo not drawn)
inactive: dose: 15.0 mg/kg/injection, schedule: Q01DX001 (ip), vehicle: acetone 111 % of control | dose: 23.0 mg/kg/injection, schedule: Q01DX001 (ip), vehicle: acetone 109 % of control | dose: 35.0 mg/kg/injection, schedule: Q01DX001 (ip), vehicle: saline 111 % of control | dose: 50.0 mg/kg/injection, schedule: Q01DX001 (ip), vehicle: acetone 108 % of control | dose: 50.0 mg/kg/injection, schedule: Q01DX001 (ip), vehicle: saline 118 % of control

CCOC(=O)c1cc(Cl)nc2ccc3ccccc3c12
inactive: [8] 101 % of control | [9] 97 % of control | dose: 400.0 mg/kg/injection, schedule: Q01DX009 (ip), vehicle: Klucel (hydroxypropylcellulose) (HPC) 96 % of control

CC(=O)NC(C(=O)O)C(C)C(=O)O (stereo not drawn)
inactive: [5] 90 % of control | [6] 93 % of control | [7] 92 % of control

CN(C)CCN=Cc1[nH]c(=S)[nH]c(=O)c1Cc1ccc(Cl)cc1
inactive: [1] 101 % of control | [2] 94 % of control | [3] 95 % of control

O=C1C(N2CCCCC2)=C(c2ccccc2)c2ccccc21
inactive: dose: 100.0 mg/kg/injection, schedule: Q01DX001 (ip), vehicle: saline 92 % of control | dose: 200.0 mg/kg/injection, schedule: Q01DX001 (ip), vehicle: saline 94 % of control | dose: 400.0 mg/kg/injection, schedule: Q01DX001 (ip), vehicle: saline 102 % of control

CCCCOC(=O)c1ccc(OC(=O)Nc2cccc(Cl)c2)cc1
inactive: dose: 100.0 mg/kg/injection, schedule: Q01DX001 (ip), vehicle: Klucel (hydroxypropylcellulose) (HPC) 94 % of control | dose: 200.0 mg/kg/injection, schedule: Q01DX001 (ip), vehicle: Klucel (hydroxypropylcellulose) (HPC) 92 % of control | [9] 102 % of control | dose: 400.0 mg/kg/injection, schedule: Q01DX001 (ip), vehicle: Klucel (hydroxypropylcellulose) (HPC) 90 % of control

Cc1ccc(C)c(NC(=O)NC2CCCCC2)c1
inactive: dose: 100.0 mg/kg/injection, schedule: Q04DX002 (ip), vehicle: saline 101 % of control | dose: 200.0 mg/kg/injection, schedule: Q04DX002 (ip), vehicle: saline 97 % of control | dose: 400.0 mg/kg/injection, schedule: Q04DX002 (ip), vehicle: saline 103 % of control

COC(CCCl)c1ccccc1 (stereo not drawn)
inactive: [10] 101 % of control | dose: 100.0 mg/kg/injection, schedule: Q04DX003 (ip), vehicle: saline with Tween-80 100 % of control | [11] 100 % of control | dose: 200.0 mg/kg/injection, schedule: Q04DX003 (ip), vehicle: saline with Tween-80 96 % of control | dose: 400.0 mg/kg/injection, schedule: Q04DX003 (ip), vehicle: saline with Tween-80 91 % of control

CCn1c(C)[n+](CC)c2ccc(C(C)=O)cc21
inactive: dose: 100.0 mg/kg/injection, schedule: Q01DX001 (ip), vehicle: saline with Tween-80 97 % of control

O=S(=O)([O-])O.O=S(O)S(=O)O.[Co+3].[NH2-].[NH2-].[NH2-].[NH2-].[NH2-]
inactive: dose: 25.0 mg/kg/injection, schedule: Q04DX002 (ip), vehicle: saline 91 % of control | dose: 50.0 mg/kg/injection, schedule: Q04DX002 (ip), vehicle: saline 97 % of control

COc1ccc(C(=O)O)c(O)c1O
inactive: [10] 102 % of control | [11] 104 % of control | [12] 101 % of control

O=C(O)CNC(CSCc1ccccc1)CSCc1ccccc1
inactive: [13] 101 % of control | [14] 106 % of control | [10] 90 % of control | [11] 97 % of control | [12] 103 % of control

O=c1oc(-c2ccc(Cl)cc2)nc2cc(Cl)ccc12
inactive: [13] 93 % of control | [14] 97 % of control | [10] 93 % of control

CN1CNC(C=O)(CCc2ccc(Cl)cc2)C1 (stereo not drawn)
inactive: dose: 200.0 mg/kg/injection, schedule: Q01DX001 (ip), vehicle: other 87 % of control | dose: 400.0 mg/kg/injection, schedule: Q01DX001 (ip), vehicle: other 98 % of control

NC(=O)CCl
inactive: dose: 12.5 mg/kg/injection, schedule: Q04DX003 (ip), vehicle: Klucel (hydroxypropylcellulose) (HPC) 92 % of control | dose: 25.0 mg/kg/injection, schedule: Q04DX003 (ip), vehicle: Klucel (hydroxypropylcellulose) (HPC) 95 % of control | dose: 25.0 mg/kg/injection, schedule: Q04DX003 (ip), vehicle: saline 102 % of control | dose: 50.0 mg/kg/injection, schedule: Q04DX003 (ip), vehicle: Klucel (hydroxypropylcellulose) (HPC) 100 % of control | dose: 50.0 mg/kg/injection, schedule: Q04DX003 (ip), vehicle: saline 97 % of control | [1] 101 % of control | [5] 100 % of control

CC(C)(C)NC(=O)NCc1cccc2ccccc12
inactive: dose: 100.0 mg/kg/injection, schedule: Q01DX009 (ip), vehicle: other 103 % of control | dose: 200.0 mg/kg/injection, schedule: Q01DX009 (ip), vehicle: other 95 % of control | dose: 400.0 mg/kg/injection, schedule: Q01DX009 (ip), vehicle: other 90 % of control

[O-][n+]1ccc(CC(O)(C(F)(F)F)C(F)(F)F)cc1
inactive: [15] 93 % of control | [16] 92 % of control | [8] 97 % of control and 104 % of control | [1] 103 % of control | [2] 102 % of control | [3] 96 % of control

O=C1/C(=C\c2ccccc2)Cc2cc3c(cc21)OCO3
inactive: [5] 105 % of control | [6] 113 % of control | [7] 102 % of control

C=C(Br)CNC(=O)Nc1c2ccccc2nc2ccccc12
inactive: dose: 12.5 mg/kg/injection, schedule: Q01DX009 (ip), vehicle: Klucel (hydroxypropylcellulose) (HPC) 86 % of control | [15] 88 % of control | [16] 89 % of control | [8] 92 % of control | dose: 150.0 mg/kg/injection, schedule: Q01DX009 (ip), vehicle: Klucel (hydroxypropylcellulose) (HPC) 89 % of control | dose: 300.0 mg/kg/injection, schedule: Q01DX009 (ip), vehicle: Klucel (hydroxypropylcellulose) (HPC) 91 % of control
